Source: ChEMBL document CHEMBL1148660, “Identification of an indole series of prostaglandin D2 receptor antagonists” (Bioorg Med Chem Lett, 2006)

Tests used:
Thromboxane A2 receptor = target: T1, Thromboxane A2 receptor (Homo sapiens, UniProt P21731); test: Binding affinity to TP receptor
T1 sequence (P21731 whole entry): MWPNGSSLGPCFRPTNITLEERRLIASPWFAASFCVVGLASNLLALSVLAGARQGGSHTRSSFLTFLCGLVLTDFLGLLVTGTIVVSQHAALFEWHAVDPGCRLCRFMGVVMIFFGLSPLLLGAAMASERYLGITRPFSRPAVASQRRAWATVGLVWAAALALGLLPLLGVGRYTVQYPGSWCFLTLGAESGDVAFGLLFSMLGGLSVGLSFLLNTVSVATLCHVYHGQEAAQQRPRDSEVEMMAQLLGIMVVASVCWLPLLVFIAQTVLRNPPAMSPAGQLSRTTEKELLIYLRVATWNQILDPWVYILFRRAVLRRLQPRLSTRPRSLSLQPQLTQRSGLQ

[1] = target: T2, Prostaglandin D2 receptor (Homo sapiens, UniProt Q13258); test: Binding affinity to DP receptor
T2 sequence (Q13258 whole entry): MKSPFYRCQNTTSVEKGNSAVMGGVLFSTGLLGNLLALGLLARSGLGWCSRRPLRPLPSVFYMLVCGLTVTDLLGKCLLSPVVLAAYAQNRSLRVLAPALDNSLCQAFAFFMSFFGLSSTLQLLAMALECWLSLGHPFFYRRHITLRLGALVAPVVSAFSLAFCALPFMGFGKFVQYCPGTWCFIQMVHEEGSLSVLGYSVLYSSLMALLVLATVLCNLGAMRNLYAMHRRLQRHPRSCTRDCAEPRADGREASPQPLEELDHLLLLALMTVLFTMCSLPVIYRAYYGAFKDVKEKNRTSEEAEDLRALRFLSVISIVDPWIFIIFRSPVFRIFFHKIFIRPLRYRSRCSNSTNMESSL

[2] = target: T3, Prostaglandin E2 receptor EP3 subtype (Homo sapiens, UniProt P43115); test: Binding affinity to EP3 receptor
T3 sequence (P43115 whole entry): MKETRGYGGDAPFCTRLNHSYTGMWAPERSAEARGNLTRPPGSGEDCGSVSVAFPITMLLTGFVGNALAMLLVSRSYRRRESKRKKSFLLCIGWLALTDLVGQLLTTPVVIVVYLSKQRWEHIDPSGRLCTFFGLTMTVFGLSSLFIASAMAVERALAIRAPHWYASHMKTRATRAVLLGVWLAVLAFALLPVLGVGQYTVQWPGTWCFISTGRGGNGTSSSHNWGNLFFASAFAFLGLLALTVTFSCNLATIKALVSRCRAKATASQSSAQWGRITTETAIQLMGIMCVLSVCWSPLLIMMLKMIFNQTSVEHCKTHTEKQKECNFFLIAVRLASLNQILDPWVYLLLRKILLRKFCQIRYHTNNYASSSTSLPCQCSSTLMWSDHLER

Prostacyclin receptor = Prostacyclin receptor (Homo sapiens, UniProt P43119); test: Binding affinity to IP receptor
[3] = target: Prostaglandin F2-alpha receptor (Homo sapiens, UniProt P43088); test: Binding affinity to FP receptor
[4] = target: Prostaglandin E2 receptor EP2 subtype (Homo sapiens, UniProt P43116); test: Binding affinity to EP2 receptor
[5] = target: Prostaglandin E2 receptor EP4 subtype (Homo sapiens, UniProt P35408); test: Binding affinity to EP4 receptor
[6] = target: T4, Prostaglandin E2 receptor EP1 subtype (Homo sapiens, UniProt P34995); test: Binding affinity to EP1 receptor
T4 sequence (P34995 whole entry): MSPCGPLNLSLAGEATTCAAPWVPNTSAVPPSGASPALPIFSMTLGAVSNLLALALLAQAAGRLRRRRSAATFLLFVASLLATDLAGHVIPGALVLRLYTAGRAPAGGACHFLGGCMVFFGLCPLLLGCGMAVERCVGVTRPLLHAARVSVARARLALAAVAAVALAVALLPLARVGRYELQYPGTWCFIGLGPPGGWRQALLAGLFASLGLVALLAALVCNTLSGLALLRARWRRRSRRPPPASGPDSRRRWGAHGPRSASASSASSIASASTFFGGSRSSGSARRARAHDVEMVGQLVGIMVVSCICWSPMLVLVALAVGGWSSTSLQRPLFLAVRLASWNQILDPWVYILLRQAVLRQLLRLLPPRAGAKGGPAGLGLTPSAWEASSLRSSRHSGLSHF

[7] = target: T2, Prostaglandin D2 receptor; test: Activity at DP receptor assessed as inhibition of PGD2-induced cAMP accumulation in platelet rich plasma; type: functional
[8] = target: T2, Prostaglandin D2 receptor; test: Activity at DP receptor assessed as inhibition of PGD2-induced cAMP accumulation in platelet; type: functional

Chain of Prostaglandin E2 receptor EP4 subtype (P35408 whole entry): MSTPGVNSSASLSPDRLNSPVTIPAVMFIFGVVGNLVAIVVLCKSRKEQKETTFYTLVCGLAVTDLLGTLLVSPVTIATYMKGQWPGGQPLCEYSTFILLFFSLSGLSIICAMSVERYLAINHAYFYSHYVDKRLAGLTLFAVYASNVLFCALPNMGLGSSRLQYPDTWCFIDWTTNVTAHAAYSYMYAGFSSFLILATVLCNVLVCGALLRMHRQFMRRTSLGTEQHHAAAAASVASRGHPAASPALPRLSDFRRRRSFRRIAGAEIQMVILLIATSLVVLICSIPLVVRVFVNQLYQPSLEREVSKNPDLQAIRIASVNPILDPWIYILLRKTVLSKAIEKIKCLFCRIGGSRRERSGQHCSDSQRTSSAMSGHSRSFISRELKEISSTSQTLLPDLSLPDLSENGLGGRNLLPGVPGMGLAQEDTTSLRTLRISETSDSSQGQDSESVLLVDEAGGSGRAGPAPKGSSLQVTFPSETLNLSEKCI
Chain of Prostaglandin F2-alpha receptor (P43088 whole entry): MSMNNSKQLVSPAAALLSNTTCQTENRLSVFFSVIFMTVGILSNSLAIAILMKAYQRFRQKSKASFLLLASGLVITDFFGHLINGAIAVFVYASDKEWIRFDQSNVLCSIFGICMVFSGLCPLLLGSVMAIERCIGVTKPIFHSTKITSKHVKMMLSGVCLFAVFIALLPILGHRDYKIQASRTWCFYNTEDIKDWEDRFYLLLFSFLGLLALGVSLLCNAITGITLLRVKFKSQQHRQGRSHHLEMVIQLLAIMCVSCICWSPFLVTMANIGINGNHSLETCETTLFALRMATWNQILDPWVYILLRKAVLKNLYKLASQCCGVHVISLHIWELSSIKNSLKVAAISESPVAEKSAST
Chain of Prostacyclin receptor (P43119 whole entry): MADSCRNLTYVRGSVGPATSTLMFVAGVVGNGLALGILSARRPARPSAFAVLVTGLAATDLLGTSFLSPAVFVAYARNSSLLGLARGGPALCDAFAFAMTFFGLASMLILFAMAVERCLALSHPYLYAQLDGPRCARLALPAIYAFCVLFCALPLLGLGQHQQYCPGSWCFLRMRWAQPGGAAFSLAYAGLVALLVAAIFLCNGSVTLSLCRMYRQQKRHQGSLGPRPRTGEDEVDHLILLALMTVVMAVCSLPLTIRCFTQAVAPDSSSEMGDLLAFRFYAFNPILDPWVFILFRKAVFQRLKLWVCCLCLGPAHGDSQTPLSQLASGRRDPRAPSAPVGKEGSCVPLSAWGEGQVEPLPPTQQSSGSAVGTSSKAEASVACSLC
Chain of Prostaglandin E2 receptor EP2 subtype (P43116 whole entry): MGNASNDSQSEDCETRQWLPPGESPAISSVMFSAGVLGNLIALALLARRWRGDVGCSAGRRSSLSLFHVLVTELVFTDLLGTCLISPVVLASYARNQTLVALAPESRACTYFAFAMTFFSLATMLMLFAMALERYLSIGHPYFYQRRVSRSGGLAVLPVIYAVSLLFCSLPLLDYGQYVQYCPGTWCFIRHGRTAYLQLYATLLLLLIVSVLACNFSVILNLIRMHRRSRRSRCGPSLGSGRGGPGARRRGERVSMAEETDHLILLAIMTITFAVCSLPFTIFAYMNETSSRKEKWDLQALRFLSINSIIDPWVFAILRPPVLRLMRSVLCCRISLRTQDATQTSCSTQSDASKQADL

A Ki (Thromboxane A2 receptor) of 730 nM and a Ki [1] of 4.5 nM were found for `CS(=O)(=O)c1cc(-c2cccs2)c2c(c1)c1c(n2Cc2ccc(Cl)cc2)C(CC(=O)O)CC1` (stereo not drawn) in this work.

A Ki (Thromboxane A2 receptor) of 330 nM and a Ki [1] of 2.8 nM were found for `CS(=O)(=O)c1cc(C2CCCCC2)c2c(c1)c1c(n2Cc2ccc(Cl)cc2)C(CC(=O)O)CC1` (stereo not drawn) in this work.

A Ki (Thromboxane A2 receptor) of 1800 nM and a Ki [1] of 23 nM were found for `CC(C)[S+]([O-])c1cccc2c3c(n(Cc4ccc(Cl)cc4)c12)C(CC(=O)O)CCC3` (stereo not drawn) in this work.

A Ki (Thromboxane A2 receptor) of 760 nM and a Ki [1] of 3.5 nM were found for `CS(=O)(=O)c1cc(Br)c2c(c1)c1c(n2Cc2cccc(Cl)c2)C(CC(=O)O)CC1` (stereo not drawn) in this work.

A Ki (Thromboxane A2 receptor) of 7.8 nM and a Ki [1] of 16 nM were found for `O=C(O)CC1CCCc2c1n(Cc1ccc(Cl)cc1)c1c(CO)cccc21` (stereo not drawn) in this work.

A Ki (Thromboxane A2 receptor) of 2.6 nM and a Ki [1] of 1 nM were found for `CSc1cccc2c3c(n(Cc4ccc(Cl)cc4)c12)C(CC(=O)O)CCC3` (stereo not drawn) in this work.

A Ki (Thromboxane A2 receptor) of 88 nM and a Ki [1] of 110 nM were found for `O=C(O)CC1CCCc2c1n(Cc1ccc(Cl)cc1)c1c(C(=O)Nc3ccccc3)cccc21` (stereo not drawn) in this work.

A Ki (Thromboxane A2 receptor) of 2100 nM and a Ki [1] of 300 nM were found for `CS(=O)(=O)c1ccc2c(c1)c1c(n2Cc2ccc(Cl)cc2)C(CC(=O)O)CC1` (stereo not drawn) in this work.

A Ki (Thromboxane A2 receptor) of 1100 nM and a Ki [1] of 9.7 nM were found for `CS(=O)(=O)c1cc(C#N)c2c(c1)c1c(n2Cc2ccc(Cl)cc2)C(CC(=O)O)CC1` (stereo not drawn) in this work.

A Ki (Thromboxane A2 receptor) of 180 nM and a Ki [1] of 1 nM were found for `CS(=O)(=O)c1cc(Br)c2c(c1)c1c(n2Cc2ccc3ccc(Cl)cc3n2)C(CC(=O)O)CC1` (stereo not drawn) in this work.

A Ki (Thromboxane A2 receptor) of 6.6 nM and a Ki [1] of 6.3 nM were found for `O=Cc1cccc2c3c(n(Cc4ccc(Cl)cc4)c12)C(CC(=O)O)CCC3` (stereo not drawn) in this work.

A Ki (Thromboxane A2 receptor) of 130 nM was found for `C[S+]([O-])c1cccc2c3c(n(Cc4ccc(Cl)cc4)c12)[C@@H](CC(=O)O)CCC3` (single isomer, unassigned; 16) in this work.

A Ki (Thromboxane A2 receptor) of 340 nM and a Ki [1] of 4 nM were found for `CC[S+]([O-])c1cccc2c3c(n(Cc4ccc(Cl)cc4)c12)C(CC(=O)O)CCC3` (stereo not drawn) in this work.

A Ki (Thromboxane A2 receptor) of 200 nM and a Ki [1] of 1.7 nM were found for `CS(=O)(=O)c1cc(Br)c2c(c1)c1c(n2Cc2ccc(Cl)cc2)C(CC(=O)O)CC1` (stereo not drawn) in this work.

A Ki (Thromboxane A2 receptor) of 16000 nM and a Ki [1] of 8.5 nM were found for `CC(O)c1cc(S(C)(=O)=O)cc2c3c(n(Cc4ccc(Cl)cc4)c12)C(CC(=O)O)CC3` (stereo not drawn) in this work.

A Ki (Thromboxane A2 receptor) of 5.1 nM and a Ki [1] of 1.9 nM were found for `CS(=O)(=O)c1cccc2c3c(n(Cc4ccc(Cl)cc4)c12)C(CC(=O)O)CCC3` (stereo not drawn) in this work.

A Ki (Thromboxane A2 receptor) of 3700 nM and a Ki [1] of 28 nM were found for `CN(C)C(=O)c1cccc2c3c(n(Cc4ccc(Cl)cc4)c12)C(CC(=O)O)CCC3` (stereo not drawn) in this work.

A Ki (Thromboxane A2 receptor) of 3600 nM and a Ki [1] of 9.5 nM were found for `CC(=O)c1cc(S(C)(=O)=O)cc2c3c(n(Cc4ccc(Cl)cc4)c12)C(CC(=O)O)CC3` (stereo not drawn) in this work.

A Ki (Thromboxane A2 receptor) of 47 nM and a Ki [1] of 1.8 nM were found for `C[S+]([O-])c1cccc2c3c(n(Cc4ccc(Cl)cc4)c12)[C@@H](CC(=O)O)CCC3` (single isomer, unassigned; 17) in this work.

A Ki (Thromboxane A2 receptor) of 140 nM and a Ki [1] of 3.9 nM were found for `O=C(O)CC1CCCc2c1n(Cc1ccc(Cl)cc1)c1c([S+]([O-])Cc3ccccc3)cccc21` (stereo not drawn) in this work.

A Ki (Thromboxane A2 receptor) of 2.4 nM and a Ki [1] of 36 nM were found for `O=C(O)CC1CCCc2c1n(Cc1ccc(Cl)cc1)c1ccccc21` (stereo not drawn) in this work.

A Ki (Thromboxane A2 receptor) of 990 nM and a Ki [1] of 80 nM were found for `CS(=O)(=O)c1ccc2c(c1)c1c(n2Cc2ccc(Cl)cc2)C(CC(=O)O)CCC1` (stereo not drawn) in this work.

A Ki (Thromboxane A2 receptor) of 520 nM and a Ki [1] of 3.6 nM were found for `C=Cc1cc(S(C)(=O)=O)cc2c3c(n(Cc4ccc(Cl)cc4)c12)C(CC(=O)O)CC3` (stereo not drawn) in this work.

A Ki [2] of over 0.3 µM, a Ki (Thromboxane A2 receptor) of 1.7 nM and a Ki (Prostacyclin receptor) of over 2 µM were found for `O=C(O)CC1CCCc2c1n(Cc1ccc(Cl)cc1)c1c(F)cc(F)cc21` (stereo not drawn) in this work. For the same compound, the Ki [1] was 11 nM, the Ki [3] was over 20 µM and the Ki [4] was over 4600 nM. For the same compound, the Ki [5] was over 2900 nM and the Ki [6] was over 7 µM.

A Ki (Thromboxane A2 receptor) of 9.1 nM and a Ki [1] of 1.7 nM were found for `CC(C)c1cccc2c3c(n(Cc4ccc(Cl)cc4)c12)C(CC(=O)O)CCC3` (stereo not drawn) in this work.

A Ki (Thromboxane A2 receptor) of 172 nM and a Ki [1] of 2.8 nM were found for `C[S+]([O-])c1cccc2c3c(n(Cc4ccc(Cl)cc4)c12)C(CC(=O)O)CCC3` (stereo not drawn) in this work.

A Ki (Thromboxane A2 receptor) of 220 nM and a Ki [1] of 4.4 nM were found for `CS(=O)(=O)c1cc(Br)c2c(c1)c1c(n2Cc2ccc3sc(Cl)c(Cl)c3n2)C(CC(=O)O)CC1` (stereo not drawn) in this work.

A Ki (Thromboxane A2 receptor) of 260 nM and a Ki [1] of 4.1 nM were found for `CS(=O)(=O)c1cc(Br)c2c(c1)c1c(n2Cc2cccc(OC(F)(F)F)c2)C(CC(=O)O)CC1` (stereo not drawn) in this work.

A Ki (Thromboxane A2 receptor) of 820 nM and a Ki [1] of 7.5 nM were found for `CC(C)(C)c1ccc(Cn2c3c(c4cc(S(C)(=O)=O)cc(Br)c42)CCC3CC(=O)O)cc1` (stereo not drawn) in this work.

A Ki (Thromboxane A2 receptor) of 96 nM and a Ki [1] of 29 nM were found for `O=C(O)CC1CCCc2c1n(Cc1ccc(Cl)cc1)c1c([S+]([O-])c3ccccc3)cccc21` (stereo not drawn) in this work.

A Ki (Thromboxane A2 receptor) of 2.2 nM and a Ki [1] of 2.6 nM were found for `O=C(O)CC1CCCc2c1n(Cc1ccc(Cl)cc1)c1c(Br)cccc21` (stereo not drawn) in this work.

A Ki (Thromboxane A2 receptor) of 100 nM and a Ki [1] of 4.1 nM were found for `CN(C)S(=O)(=O)c1cc(Br)c2c(c1)c1c(n2Cc2ccc(Cl)cc2)C(CC(=O)O)CC1` (stereo not drawn) in this work.

A Ki [2] of over 20 µM, a Ki (Thromboxane A2 receptor) of 7100 nM and a Ki (Prostacyclin receptor) of over 20 µM were found for `CC(O)c1cc(S(C)(=O)=O)cc2c3c(n(Cc4ccc(Cl)cc4)c12)[C@@H](CC(=O)O)CC3` (stereo partly drawn) in this work. For the same compound, the Ki [1] was 1.8 nM, the Ki [3] was over 20 µM and the Ki [4] was 390 nM. For the same compound, the IC50 [7] was 8.6 nM, the Ki [5] was over 2900 nM and the IC50 [8] was 2 nM. It also gave a Ki [6] of over 20 µM.

A Ki (Thromboxane A2 receptor) of 2300 nM and a Ki [1] of 1100 nM were found for `CN(C)S(=O)(=O)c1ccc2c(c1)c1c(n2Cc2ccc(Cl)cc2)C(CC(=O)O)CC1` (stereo not drawn) in this work.

A Ki [2] of over 20 µM, a Ki (Thromboxane A2 receptor) of 1200 nM and a Ki (Prostacyclin receptor) of over 20 µM were found for `CC(=O)c1cc(S(C)(=O)=O)cc2c3c(n(Cc4ccc(Cl)cc4)c12)[C@@H](CC(=O)O)CC3` in this work. It also gave a Ki [1] of 2.6 nM, a Ki [3] of over 20 µM and a Ki [4] of 230 nM. It also gave an IC50 [7] of 7.9 nM, a Ki [5] of over 20000 nM and an IC50 [8] of 2 nM. It also gave a Ki [6] of over 20 µM.

A Ki (Thromboxane A2 receptor) of 2700 nM and a Ki [1] of 1900 nM were found for `CS(=O)(=O)c1ccc(Cn2c3c(c4cc(S(C)(=O)=O)cc(Br)c42)CCC3CC(=O)O)cc1` (stereo not drawn) in this work.
